Results from article PMC6931124, “NPY1R-targeted peptide-mediated delivery of a dual PPARα/γ agonist to adipocytes enhances adipogenesis and prevents diabetes progression” (Molecular Metabolism, 2019).
“Also recorded” adds a separate entry of the source.

Columns and labels:
[1] = Ketone bodies; type: in vivo; conditions: db/db mice, 2.5 μM/kg/day, 8 days; n = 5
Protocol: (§1) All of the experiments were performed according to the animal ethical laws of the state Saxony, Germany, and were approved by the local animal ethics review board (Landesdirektion Sachsen, Leipzig, Germany). Female db/db mice 12–15 weeks of age were purchased from Taconic (Denmark) and housed in groups of 5 in temperature- and humidity-controlled facilities in a 12 h:12 h light–dark cycle and had free access to tap water and food (regular chow, Sniff, Soest, Germany). Three out of seven groups served as controls (N = 15, see Table 1). The 5 db/db mice were untreated and 10 db/db mice were vehicle treated either orally or intraperitoneally (i.p.). […]
(§2) All of the mice were monitored for 9 days during the treatment period. Body weight, food intake, and water uptake were recorded daily and body composition (lean body mass and whole body fat mass) was recorded at the beginning, middle, and end of the study in the conscious mice using an EchoMRI system (Echo Medical Systems, Houston, TX, USA). At the beginning and end of the treatment period, the HbA1c levels were determined from 5 μl of whole venous blood samples using an automated chemical analyzer at the Institute of Laboratory Medicine and Clinical Chemistry and beta-ketone using an automated glucose monitor (FreeStyle Precision H, Abbott GmbH, Ludwigshafen, Germany). […]

[2] = Body weight change in db/db mice; type: in vivo; conditions: 2.5 μM/kg/day, 8 days, tesa oral, peptides i.p., n = 5
Protocol: as §1, §2

[3] = Plasma triglycerides; type: in vivo; conditions: db/db mice, 2.5 μmol/kg/day, 8 days; n = 5
Protocol: as §1, with “(i.p.). One additional group (n = 5) of lean C57BL/6NTac mice was used as a metabolically healthy control group.” for “(i.p.).”
(§3) Serum insulin (mouse insulin ELISA, Mercodia, Uppsala, Sweden), adiponectin (mouse adiponectin ELISA, AdipoGen, San Diego, CA, USA), leptin (mouse leptin ELISA, Crystal Chem, Downers Grove, IL, USA), and Mcp-1 (mouse/rat CCL2/JE/Mcp-1 Quantikine ELISA, R&D Systems, Minneapolis, MN, USA) levels were analyzed via ELISA according to the manufacturer's instructions. Serum concentrations of TG, FFA, and cholesterol were measured by an automatic chemical analyzer at the Institute of Laboratory Medicine and Clinical Chemistry.

[4] = system: ob/ob mice; conditions: free systemically administered tesa; ref [43]; cited from earlier work
[5] = cited from earlier work
From the text: The dual PPARα/γ agonist tesaglitazar (tesa), in contrast, contains a carboxyl function suitable for synthesis. […] The clinical investigation of tesa was discontinued in phase III because of safety concerns regarding ...

[6] = Serum adiponectin; type: in vivo; conditions: db/db mice, 2.5 μmol/kg/day, 8 days; ELISA; n = 5
Protocol: as §1, with “(i.p.). One additional group (n = 5) of lean C57BL/6NTac mice was used as a metabolically healthy control group.” for “(i.p.).”
as §3

[7] = system: obese Zucker rats; conditions: free systemically administered tesa; ref [43]; cited from earlier work
[8] = Rectal body temperature; type: in vivo; conditions: db/db mice, 2.5 μM/kg/day, 8 days
Protocol: as §1, §2

[9] = system: 3T3-L1 cells; assay: qRT-PCR of adipocyte-marker genes, 3T3-L1; type: cell-based, murine; conditions: qPCR, vs DMSO; n ≥ 3
Protocol: The 3T3-L1 or SGBS cells were seeded into 6-well plates and differentiated as previously described. Tesa or peptides were added to the differentiation medium at a concentration of 100 μM on day 2, followed by 12 h or 24 h incubation. On day 4, the cells were washed two times with PBS, harvested by trypsinization, and stored at −70 °C until RNA isolation was performed. […] N ≥ 3 independent experiments with two replicates were performed. For the cell culture experiments, the data were analyzed according to the 2^−ΔΔCt method using 36B4 or GAPDH as housekeeping genes and DMSO treatment as a control. Liver mRNA expression was calculated relative to 18sRNA, which was used as an internal control due to its resistance to glucose-dependent regulation. The mRNA levels were quantified using the standard curve method of QuantStudio 6 Flex software (Applied Biosystems, Foster City, CA, USA), determining the crossing points of the individual samples using an algorithm that identifies the first turning point of the fluorescence curve. Amplification of the specific transcripts was confirmed by the melting curve profiles (cooling the sample to 68 °C and heating slowly to 95 °C while measuring the fluorescence) at the end of each PCR [53].
(A, B) Cells were differentiated and stimulated according to the protocol depicted for 3T3-L1 (A) and for SGBS (B). […] Bars represent mean ± SEM from n = 3 independent experiments performed in quadruplicates. Measurements were normalized using DMSO (vehicle)-treated cells (set to 100%). Statistical significances refer to vehicle-treated cells. (E,F) Expression of adipocyte-enriched genes in 3T3-L1 (E) or SGBS (F) adipocytes analyzed by qPCR. Values represent mean ± SEM from n ≥ 3 independent experiments performed in duplicates. […] Statistical significances refer to DMSO-treated cells and were determined by one-way analysis of variance (ANOVA) followed by Dunnett's multiple comparison test, *≤0.05, **p ≤ 0.01, ***p ≤ 0.001.

Structure (SMILES): CCO[C@@H](Cc1ccc(OCCc2ccc(OS(C)(=O)=O)cc2)cc1)C(=O)O [tesa, tesaglitazar]
- ketone bodies [1]: normalization of the plasma concentration
- body weight change, in words [2]: did not change significantly; also recorded: can prevent this weight loss
- triglycerides [3]: normalization
- anti-diabetic effect in ob/ob mice [4]: reduce hypertriglyceridemia, hyperinsulinemia, and hyperglycemia in ob/ob mice
- insulin resistance ([5]; mice and humans, ref [41, 42, 43]): reduce insulin resistance in mice and humans
- clinical safety ([5]; phase III, ref [16, 44]): discontinued in phase III because of safety concerns regarding renal dysfunction
- adiponectin, serum [6]: normalization of the plasma concentration
- insulin sensitivity in obese Zucker rats [7]: restore insulin sensitivity in obese Zucker rats
- body temperature, in words [8]: normalized
- Cidec expression, 3T3-L1 [9]: enhanced
- Fabp4 expression, 3T3-L1 [9]: enhanced
- adiponectin expression, 3T3-L1 [9]: upregulated
